Measurements from patent US9837621B2, “Compound, light-emitting element, light-emitting device, electronic device, and lighting device” (Semiconductor Energy Laboratory Co., Ltd., priority 2014, dated 2017).

What was measured:
[1] = Thermogravimetry-differential thermal analysis (TG-DTA), 5% weight loss temperature; type: physicochemical; conditions: nitrogen stream 200 mL/min, normal pressure, temperature rising rate 10° C./min
Description: Thermogravimetry-differential thermal analysis (TG-DTA) was performed on 2mFDBtPDBq. The measurement was conducted by using a high vacuum differential type differential thermal balance (TG/DTA 2410SA, manufactured by Bruker AXS K.K.). The measurement was conducted under a nitrogen stream (flow rate: 200 mL/min) at normal pressure at a temperature rising rate of 10° C./min. It was found from the relationship between weight and temperature (thermogravimetry) that the 5% weight loss temperature of 2mFDBtPDBq was 495° C.
TG-DTA was performed on 2mDBtBPDBq-VIII. The conditions of the measurement were similar to those in Example 1. It was found from thermogravimetry that the 5% weight loss temperature of 2mDBtBPDBq-VIII was 500° C. or higher.

physchem = type: physicochemical; conditions: organic solvent or mixture, thermodynamic from solid
Source text: The compounds which are embodiments of the present invention and used in this example were 2mFDBtPDBq (sample 1) and 2mDBTBPDBq-VIII (sample 2). For the methods for synthesizing the compounds, Synthesis Examples 1 and 2 can be referred to. As comparative compounds, 2-[3′-(dibenzothiophen-4-yl)biphenyl-3-yl]dibenzo[f,h]quinoxaline (abbreviation: 2mDBTBPDBq-II) (comparative sample 3) and 2-[3-(dibenzothiophen-4-yl)phenyl]dibenzo[f,h]quinoxaline (abbreviation: 2mDBTPDBq-II) (comparative sample 4) were used in this example. The purity of each compound was 99.9%. The chemical formulae of the compounds are shown below.
The solvents used in this example were the four kinds of solvents: toluene, chloroform, ethyl acetate, and acetone.
A method for examining the solubility of the compound of each sample is described. First, 10 mg of the compound was put into a small bottle and to this was added 1 mL of a solvent. Then, whether the compound was dissolved at room temperature or not was checked. When the compound was not dissolved at room temperature, ultrasonic wave irradiation and then heating using a dryer were performed, so that whether the compound was dissolved or not was checked.
When the compound was not dissolved after heating, the volume of the solvent was increased to 10 mL, so that whether the compound was dissolved at room temperature or not was checked. […]

Compound | 5% weight loss temperature [1] [°C] | solubility (physchem) [µg/mL]
CC1(C)c2ccccc2-c2ccc(-c3cccc4c3sc3c(-c5cccc(-c6cnc7c8ccccc8c8ccccc8c7n6)c5)cccc34)cc21 [2mFDBtPDBq, 2-{3-[6-(9,9-dimethylfluoren-2-yl)dibenzothiophen-4-yl]phenyl}dibenzo[f,h]quinoxaline] | 495 | > 10000
CC1(C)c2ccccc2-c2ccc(-c3cccc4c3sc3c(-c5cccc(-c6cccc(-c7cnc8c9ccccc9c9ccccc9c8n7)c6)c5)cccc34)cc21 [2mDBtBPDBq-VIII, 2-(3-{3-[6-(9,9-dimethylfluoren-2-yl)dibenzothiophen-4-yl]phenyl}phenyl)dibenzo[f,h]quinoxaline] | ≥ 500 | > 10000
